Experimental findings from PubChem BioAssay (NCI) are described below.

Test systems include COLO 205 colon; SK-MEL-2 melanoma; MDA-N; TK-10 renal; HCT-116 colon; CAKI-1 renal; NCI-H460 lung; HL-60(TB) leukemia; RPMI-8226 leukemia; HT29 colon; NCI-H226 lung; SF-539 CNS; MDA-MB-435; UACC-257 melanoma; OVCAR-3 ovarian; BT-549 breast; NCI/ADR-RES ovarian; HCT-15 colon; DU-145 prostate; KM12 colon.
What all share (assay): inhibition of tumour cell growth, NCI panel, 48 h

The structures appear in SMILES notation.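 Protocol summary: plate cells (96-well), add compound at 5 concentrations, incubate 48 h, interpolate endpoints linearly. TGI denotes the concentration required for complete inhibition of growth.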

On to `Cc1ccc2nc(CN3CCCC(O)C3)cc(=O)n2c1` (stereo not given), for which the TGI with COLO 205 colon, with SK-MEL-2 melanoma, in the test with MDA-N, in the test with TK-10 renal, with HCT-116 colon and with CAKI-1 renal was greater than 100 µM throughout. The TGI with NCI-H460 lung, with HL-60(TB) leukemia, with RPMI-8226 leukemia, in the test on HT29 colon, in the test on NCI-H226 lung and with SF-539 CNS was greater than 100 µM in each case. For the same molecule, the TGI with MDA-MB-435, in the test with UACC-257 melanoma, with OVCAR-3 ovarian, in the test on BT-549 breast, with NCI/ADR-RES ovarian and in the test with HCT-15 colon was greater than 100 µM each time. Further, the TGI with DU-145 prostate and in the test with KM12 colon was greater than 100 µM throughout.
`CCOC(=O)C(SCCO)C(C(=O)OCC)n1cnc2c(N)ncnc21` (stereo not given): the TGI in the test on COLO 205 colon was 20 µM; with SK-MEL-2 melanoma, 24.4 µM; in the test with MDA-N it was 44.1 µM; in the test with TK-10 renal, 28.3 µM; with HCT-116 colon, 22.2 µM; in the test with CAKI-1 renal, 15.1 µM. The TGI with NCI-H460 lung was found to be 18 µM; in the test on HL-60(TB) leukemia it was 5.46 µM; in the test with RPMI-8226 leukemia, 23.5 µM; with HT29 colon, 25.4 µM; in the test on NCI-H226 lung, 38 µM; in the test on SF-539 CNS, 35.5 µM. The TGI was 30.2 µM in the test on MDA-MB-435; greater than 80.2 µM with UACC-257 melanoma; 25.4 µM in the test on OVCAR-3 ovarian; 30.8 µM in the test with BT-549 breast; 56.7 µM in the test with NCI/ADR-RES ovarian; 22.5 µM in the test on HCT-15 colon. Moreover, the TGI is greater than 100 µM in the test with DU-145 prostate and 35.2 µM in the test with KM12 colon.
For the molecule `CC(=O)C(=[N+]=[N-])C(=O)NCC#N`, the TGI in the test with COLO 205 colon, in the test with SK-MEL-2 melanoma, in the test with MDA-N, in the test with TK-10 renal, with HCT-116 colon and with CAKI-1 renal was greater than 10 µM throughout. The TGI in the test on NCI-H460 lung, in the test on HL-60(TB) leukemia, with RPMI-8226 leukemia, in the test on HT29 colon, in the test with NCI-H226 lung and in the test on SF-539 CNS was greater than 10 µM each time. The TGI in the test on MDA-MB-435, with UACC-257 melanoma, with OVCAR-3 ovarian, in the test with BT-549 breast, in the test on NCI/ADR-RES ovarian and in the test on HCT-15 colon was greater than 10 µM in each case. For the same molecule, the TGI in the test on DU-145 prostate and in the test on KM12 colon was greater than 10 µM each time.
Take `COc1cccc(OC/C(N=Cc2cccnc2)=N/NC(=O)c2ccncc2)c1`: the TGI in the test with COLO 205 colon, in the test with SK-MEL-2 melanoma, with MDA-N, with TK-10 renal, in the test on HCT-116 colon and in the test with CAKI-1 renal was greater than 100 µM throughout. Further, the TGI with NCI-H460 lung, in the test with HL-60(TB) leukemia, in the test with RPMI-8226 leukemia, in the test on HT29 colon, in the test with NCI-H226 lung and in the test with SF-539 CNS was greater than 100 µM in each case. Moreover, the TGI in the test with MDA-MB-435, with UACC-257 melanoma, in the test with OVCAR-3 ovarian, with BT-549 breast, with NCI/ADR-RES ovarian and in the test on HCT-15 colon was greater than 100 µM in each case. Besides, the TGI with DU-145 prostate and in the test on KM12 colon was greater than 100 µM in each case.
For the molecule `O=C(c1ccccc1)c1ccc2nc3n(c2c1)C(c1c(F)cccc1F)SC3` (stereo not given), the TGI with COLO 205 colon is 21.7 µM; in the test with SK-MEL-2 melanoma, 31.2 µM; with MDA-N, 3.43 µM; with TK-10 renal, greater than 100 µM; in the test on HCT-116 colon, 13.5 µM; in the test with CAKI-1 renal, 44.4 µM. The TGI was 52.2 µM in the test on NCI-H460 lung; greater than 100 µM in the test with HL-60(TB) leukemia; greater than 100 µM in the test with RPMI-8226 leukemia; 39.5 µM with HT29 colon; greater than 79.2 µM in the test on NCI-H226 lung; greater than 47.8 µM in the test with SF-539 CNS. Besides, the TGI is 3.96 µM in the test with MDA-MB-435; 91.1 µM in the test with UACC-257 melanoma; 24.1 µM in the test with OVCAR-3 ovarian; greater than 100 µM in the test on BT-549 breast; 26.5 µM in the test with NCI/ADR-RES ovarian; greater than 59 µM in the test with HCT-15 colon. Also, the results for the TGI in the test with DU-145 prostate and in the test on KM12 colon were greater than 74 µM and 14.3 µM, respectively.
`CO[C@H]1c2cccc3cccc(c23)[C@@H]1n1[nH]c(=O)n(C(C)(C)C)c1=O`: the TGI in the test on COLO 205 colon, with SK-MEL-2 melanoma, in the test on MDA-N, in the test with TK-10 renal, with HCT-116 colon and with CAKI-1 renal was greater than 100 µM throughout. The TGI with NCI-H460 lung, in the test on HL-60(TB) leukemia, in the test with RPMI-8226 leukemia, with HT29 colon, with NCI-H226 lung and in the test on SF-539 CNS was greater than 100 µM each time. The TGI with MDA-MB-435, with UACC-257 melanoma, in the test with OVCAR-3 ovarian, in the test on BT-549 breast, in the test on NCI/ADR-RES ovarian and in the test on HCT-15 colon was greater than 100 µM in each case. Also, the TGI with DU-145 prostate and in the test with KM12 colon was greater than 100 µM each time.
For `O=c1[nH]c(C23CC4CC(CC(C4)C2)C3)cc2c1c(=O)oc1ccccc12`, the TGI in the test with COLO 205 colon is 46.9 µM; with SK-MEL-2 melanoma it was 38.7 µM; with MDA-N, greater than 59.3 µM; with TK-10 renal, 12.2 µM; with HCT-116 colon, 12.4 µM; with CAKI-1 renal it was 7.03 µM. Moreover, the TGI in the test on NCI-H460 lung is 11.6 µM; in the test on HL-60(TB) leukemia, greater than 100 µM; in the test with RPMI-8226 leukemia, 15.1 µM; in the test with HT29 colon, 15.7 µM; in the test on NCI-H226 lung, 5.75 µM; with SF-539 CNS, 17.4 µM. In addition, the TGI in the test on MDA-MB-435 is greater than 60.5 µM; in the test with UACC-257 melanoma, greater than 76.2 µM; with OVCAR-3 ovarian, 17.5 µM; with BT-549 breast, 38.2 µM; in the test on NCI/ADR-RES ovarian it was 18.9 µM; in the test with HCT-15 colon, 81.3 µM. For the same molecule, the TGI is 22 µM in the test on DU-145 prostate and greater than 96 µM with KM12 colon.
